Experimental data taken from patent US20100272699A1, “MC-1R, MC-2R, and/or µ OPIOID RECEPTORS STIMULATION” (BASF BEAUTY CARE SOLUTIONS FRANCE S.A.S., priority 2007, published 2010).

Columns and labels:
Format in all cases: cell-based, human
MC-1R = experiment: RT-PCR of MC-1R mRNA in keratinocytes put in contact with actives; conditions: for stimulation of mRNA synthesis of the 3 receptors (MC-1R): positive controls in keratinocytes: TGF-β 1 ng/ml, TNF-α 100 ng/mL, IL-1α 50 pg/ml, quantitative RT-PCR (x2 or x.08 for the 3 inducers)
Excerpt: (§1) In particular, the extracts are obtained by macerating plants (preferably roots, rhizomes, stems, bark, flowers, fruits, seeds, germs, or leaves) at 1-10% (p/p), usually 1-5% in a solvent or a mixture of solvents, usually a mixture of water and alcohol, glycol, or polyol (such as ethanol, glycerol, butylene glycol and other glycols, xylitol, etc.) 100/0 to 0/100, and preferably in water. The extracts obtained are then filtered or distilled in order to recover the soluble portion, which is then filtered, preferably at 0.45 μm. Biotechnological hydrolysates are obtained via the fermentation of plant extracts in the presence of microorganisms usually from the family of lactic bacteria, in particular bactobacillus plantarum, or paracasei, and bifidobacterium, in particular longum or Saccharomyces. These hydrolysates are then filtered, preferably to 0.45 μm, in order to obtain the active components.
(§2) The characterized molecules are prepared via dissolution in a solvent, usually DMSO, ethanol, glycol, and in particular DMSO at a concentration of 0.1%.
(§3) The active components are tested for keratinocytes after dissolution in the culturing environment: usually between 0.1% and 2% (v/v) for plants and biotechnological hydrolysates and in particular from 0.5% to 1% and usually between 0.001% and 0.01% for characterized molecules. The present results are obtained with 1% in the culturing environment for plant extracts and biotechnological hydrolysates, and with 0.01% for characterized molecules.
(§4) Keratinocytes taken from plastic surgery on normal adults through enzymatic digestion have been amplified in a specific environment for keratinocytes and then seeded, for example at 50,000 per cm^2 in 24-well plates and cultivated in a single layer in a definite no-serum environment. Upon convergence, the cells are put in contact with diluted actives in the culturing environment, usually for 24 hours.
(§5) In parallel, an untreated control (environment alone) and 3 positive controls (TGF-β at 1 ng/ml, IL-1α at 50 pg/ml and TNF-α at 100 ng/mL) are usually carried out, for example on the same cultivation plate. TGF-β at 1 ng/ml, TNF-α at 100 ng/mL, and IL-1α at 50 pg/ml were previously tested and stimulation of mRNA synthesis of the 3 receptors induced by these 3 cytokins at these concentrations was verified through an analysis of mRNA, for example by quantatitive RT-PCR (x2 or x.08 for the 3 inducers). […]
(§6) The parameters of amplification have usually been the following: The technique of RT-PCR in real time is conducted with the “Quanti Tect SYBR Green RT-PCR” kit (Qiagen, France) on wells containing mRNA, in an OPTICON thermocycler, which carries out cycles of amplification. […] At the end of each cycle, fluorescence, which is proportional to the number of fragments amplified, is read. […]

MC-2R = experiment: RT-PCR of MC-2R mRNA in keratinocytes put in contact with actives; conditions: for stimulation of mRNA synthesis of the 3 receptors (MC-2R): positive controls in keratinocytes: TGF-β 1 ng/ml, TNF-α 100 ng/mL, IL-1α 50 pg/ml, quantitative RT-PCR (x2 or x.08 for the 3 inducers)
Excerpt: as §1, §2, §3, §4, §5, §6

μ opioid R = experiment: RT-PCR of μ opioid R mRNA in keratinocytes put in contact with actives; conditions: for stimulation of mRNA synthesis of the 3 receptors (μ opioid R): positive controls in keratinocytes: TGF-β 1 ng/ml, TNF-α 100 ng/mL, IL-1α 50 pg/ml, quantitative RT-PCR (x2 or x.08 for the 3 inducers)
Excerpt: as §1, §2, §3, §4, §5, §6

POMC = experiment: RT-PCR of POMC mRNA in keratinocytes put in contact with actives; conditions: mRNA vs untreated control, relative to actin, 24 hours, 1% plant extracts and biotechnological hydrolysates, 0.01% characterized molecules
Excerpt: as §1, with “components. […]” for “components.”
as §6

[1] = mRNA vs untreated control, relative to actin, keratinocytes, 24 hours, 1% plant extracts and biotechnological hydrolysates, 0.01% characterized molecules

Molecule	MC-1R Control X: (MC-1R; [1]) [Control X]	MC-2R Control X: (MC-2R; [1]) [Control X]	μ opioid R Control X: (μ opioid R; [1]) [Control X]	POMC Control X: (POMC) [Control X]	stimulation of mRNA synthesis of the 3 receptors (MC-1R) (MC-1R)	stimulation of mRNA synthesis of the 3 receptors (MC-2R) (MC-2R)	stimulation of mRNA synthesis of the 3 receptors (μ opioid R) (μ opioid R)
CC1=CC(=O)C2=C(C)CC(OC(=O)Cc3ccccc3)C3C(C)C(=O)OC3C12 (stereo not shown) [phenylacetic acid 3,6,9-trimethyl-2,7-dioxo-2,3,3a,4,5,7,9a,9b-octahydro-azuleno[4,5-b]furan-4-yl]	20.0	20.0	1.0	1	–	–	–
IL-1α: cytokine used as positive control at 50 pg/ml	–	–	–	–	stimulation	stimulation	stimulation
TGF-β	–	–	–	–	stimulation	stimulation	stimulation
TNF-α	–	–	–	–	stimulation	stimulation	stimulation
